Experimental data reported in patent publication US20250352675A1, “CA-IX TARGETING FLUORESCENT PROBES” (BRACCO IMAGING S.P.A., priority 2022, published 2025).

Test system: HT-29 cells
Experiment: Time-dependent cell uptake / internalization in HT-29 cells by flow cytometry
Type: cell-based, human
Conditions: 1 μM; for Slope of cell-associated fluorescence increase / total cell-associated fluorescence over time: 37° C.; for Slope of cell-associated fluorescence increase: 1-6 hours; for total cell-associated fluorescence over time: 1 to 6 hours; for % internalization (mean ± std. dev.): after 2 hours at 37° C.
Description: The HT-29 cells were used as in vitro model to assess the cell uptake of the CA-IX targeting compounds of the invention, more specifically whether cellular internalization of compounds occurred after targeting to cell-surface-expressed CA-IX. Cellular uptake was evaluated by flow cytometry. […] Treatment with unconjugated dyes were used to estimate non-specific CA-IX-independent cellular uptake. Cell incubation on ice was used to discriminate the cell-associated fluorescence deriving from internalized and cell-surface associated compounds (37° C.), from the one deriving from solely cell surface-bound compounds (on ice). Treatment of HT-29 cells, grown in 24-well plates, was performed by rinsing cells in DPBS and then by incubation with treatment solutions, for the indicated times and temperatures, in the dark. At the end of treatment, cells were rinsed 3 times with cold DPBS, and detached from the plate with StemPro® Accutase® Cell Dissociation Reagent, collected in 1.5 mL tubes after dilution in DPBS and centrifuged (5 minutes, 350 RCF, 4° C.). The supernatant was then discarded, and the cell pellet was resuspended in 300 μL of cold FACS buffer, or in a suitable volume in order to obtain no more than 1,000 recorded events per μL during FACS analysis. Samples were analyzed with the flow cytometer Accuri™ C6 (BD Biosciences) using the 640 nm excitation laser and the emission 780/60 nm filter. At least 15000 valid events were collected for each sample. At the end of analysis, each sample was plotted in histograms, being X the fluorescence intensity (FL4-A) in log scale and Y the counts. Usually, a gaussian distribution of the cell population was observed. The data retrieved were the mean fluorescence of each population, considered the fluorescence intensity value of the corresponding sample. Independent replicates were performed for each experimental condition. Normalized cell-associated fluorescence was calculated with the following formula: […]
To evaluate the time dependent uptake, the experiments were conducted from 1 to 6 hours of cell treatment with a compound concentration of 1 μM, both on ice (internalization blocked) and at 37° C. (internalization-permissive temperature) in order to differentiate cell-associated fluorescence deriving from internalized compounds from that due to cell surface-associated one. The cell surface-associated fluorescence remained roughly constant over time while the binding of the corresponding unconjugated dyes was undetectable. […] The internalization potential was calculated as percentage of internalized compounds after 2 hours of cell treatment (arbitrarily chosen) at 37° C.

| SMILES | Slope of cell-associated fluorescence increase | total cell-associated fluorescence over time | % internalization (mean ± std. dev.) |
| --- | --- | --- | --- |
| CC1(C)C(/C=C/C=C/C=C/C=C2/N(CCCCS(=O)(=O)O)c3ccc(C(=O)NC[C@H](O)[C@@H](O)[C@H](O)[C@H](O)CO)cc3C2(C)C)=[N+](CCCCS(=O)(=O)[O-])c2ccc(C(=O)NCCCCCCCC(=O)Nc3nnc(S(N)(=O)=O)s3)cc21 [Compound 1] | 1.0 | increased over time | 22.8 ± 8.2% |
| CC1(C)C(/C=C/C=C/C=C/C=C2/N(CCCCS(=O)(=O)O)c3ccc(S(=O)(=O)O)cc3C2(C)C)=[N+](CCCCS(=O)(=O)[O-])c2ccc(C(=O)NCCCCCCCC(=O)Nc3nnc(S(N)(=O)=O)s3)cc21 [Compound 2] | 1.9 | increased over time | 40.8 ± 9.9% |
| CC1(C)C(/C=C/C2=C(Oc3ccc(S(=O)(=O)O)cc3)C(=C/C=C3/N(CCCCS(=O)(=O)O)c4ccc(S(=O)(=O)O)cc4C3(C)C)/CCC2)=[N+](CCCCS(=O)(=O)[O-])c2ccc(C(=O)NCCCCCCCC(=O)Nc3nnc(S(N)(=O)=O)s3)cc21 [Compound 3] | 2.7 | increased over time | 49.2 ± 3.9% |
